In ChEMBL document CHEMBL1201862, “PubChem BioAssay data set” (2004):
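Growth conditions: 96-well plates. Treatment: test compound, 48 hours, 5 concentrations. Analysis: linear interpolation between bracketing concentrations; unreached endpoints set to highest concentration. At the GI50, growth is halved.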 The source made the active and inactive calls. Rule as the data show it: active = GI50 up to about 1.1 µM and inactive = higher.

Assays:
Experiment in all cases: inhibition of tumour cell growth, NCI panel, 48 h
[1] = system: HCC 2998
[2] = system: COLO 205
[3] = system: UACC-257
[4] = system: OVCAR-3
[5] = system: UACC-62
[6] = system: BT-549
[7] = system: OVCAR-5
[8] = system: RPMI-8226
[9] = system: MCF7
[10] = system: OVCAR-4
[11] = system: T47D
[12] = system: SW-620
[13] = system: ACHN
[14] = system: NCI-H23
[15] = system: MDA-N

SMILES	GI50 [1]	GI50 [2]	GI50 [3]	GI50 [4]	GI50 [5]	GI50 [6]	GI50 [7]	GI50 [8]	GI50 [9]	GI50 [10]	GI50 [11]	GI50 [12]	GI50 [13]	GI50 [14]	GI50 [15]
Cc1oc(N)c(S(=O)(=O)c2cc3ccccc3[n+]([O-])c2N)c1C	> 100 µM (inactive)	> 100 µM (inactive)	> 100 µM (inactive)	> 100 µM (inactive)	> 100 µM (inactive)	> 100 µM (inactive)	> 100 µM (inactive)	> 100 µM (inactive)	> 100 µM (inactive)	> 100 µM (inactive)	> 100 µM (inactive)	> 100 µM (inactive)	> 100 µM (inactive)	> 100 µM (inactive)	> 100 µM (inactive)
Fc1ccccc1C1SCc2nc3cc4ccccc4cc3n21 (stereo unspecified)	72.6 µM (inactive)	86.7 µM (inactive)	61.1 µM (inactive)	> 100 µM (inactive)	57.9 µM (inactive)	> 100 µM (inactive)	> 100 µM (inactive)	> 100 µM (inactive)	22.7 µM (inactive)	35.1 µM (inactive)	14 µM (inactive)	85.7 µM (inactive)	28.8 µM (inactive)	> 100 µM (inactive)	79.1 µM (inactive)
O=C1NC(=O)/C(=C/c2ccc(S(=O)(=O)N/N=C/c3ccccc3)cc2)N1	> 100 µM (inactive)	> 100 µM (inactive)	> 100 µM (inactive)	> 100 µM (inactive)	> 100 µM (inactive)	> 100 µM (inactive)	> 100 µM (inactive)	> 100 µM (inactive)	> 100 µM (inactive)	> 100 µM (inactive)	> 100 µM (inactive)	> 100 µM (inactive)	> 100 µM (inactive)	> 100 µM (inactive)	> 100 µM (inactive)
CCCCCCCCCCCCCCCCOCC(O)CO (stereo unspecified)	17.3 µM (inactive)	22.1 µM (inactive)	19.1 µM (inactive)	20.7 µM (inactive)	17 µM (inactive)	22.2 µM (inactive)	19.8 µM (inactive)	14.8 µM (inactive)	22.2 µM (inactive)	21 µM (inactive)	23.4 µM (inactive)	20.3 µM (inactive)	18.8 µM (inactive)	17.9 µM (inactive)	25.7 µM (inactive)
Cc1ccc(C(=O)N/N=C(\N=N\c2cccc([N+](=O)[O-])c2)c2ccc(N(CCC#N)CCC#N)cc2C)cc1	30.9 µM (inactive)	4.73 µM (inactive)	10.6 µM (inactive)	2.32 µM (inactive)	26.1 µM (inactive)	19.6 µM (inactive)	59.4 µM (inactive)	13 µM (inactive)	13.2 µM (inactive)	23.7 µM (inactive)	9.18 µM (inactive)	38.7 µM (inactive)	42.9 µM (inactive)	20.5 µM (inactive)	25.1 µM (inactive)
Cc1c(Cl)nc(Cl)nc1Cl	1.2 µM (inactive)	0.307 µM (active)	2.3 µM (inactive)	1.85 µM (inactive)	4 µM (inactive)	3.65 µM (inactive)	1.88 µM (inactive)	2.38 µM (inactive)	0.984 µM (active)	1.46 µM (inactive)	1.58 µM (inactive)	1.27 µM (inactive)	0.421 µM (active)	2.18 µM (inactive)	2.18 µM (inactive)
O=C(Cn1cc(Br)c(=O)[nH]c1=O)c1ccc(-c2ccccc2)cc1	> 15.8 µM (inactive)	> 16.4 µM (inactive)	15.9 µM (inactive)	> 100 µM (inactive)	> 100 µM (inactive)	3.18 µM (inactive)	> 14.4 µM (inactive)	15.3 µM (inactive)	> 17.5 µM (inactive)	> 15.8 µM (inactive)	> 100 µM (inactive)	> 17.5 µM (inactive)	18.6 µM (inactive)	16.4 µM (inactive)	> 100 µM (inactive)
C=C[C@H]1CN2CCc3c([nH]c4c([C@@H]5CCCN5C)c(O)ccc34)[C@@H]2C[C@@H]1C[C@H]1c2[nH]c3ccccc3c2CCN1C	0.177 µM (active)	1.26 µM (inactive)	3.18 µM (inactive)	1.36 µM (inactive)	1.68 µM (inactive)	1.75 µM (inactive)	1.85 µM (inactive)	0.35 µM (active)	1.75 µM (inactive)	1.42 µM (inactive)	1.48 µM (inactive)	1.23 µM (inactive)	1.92 µM (inactive)	1.85 µM (inactive)	0.49 µM (active)
Cn1c(=O)c2c(nc(N/N=C3/SCC(=O)N3Cc3ccccc3)n2C)n(C)c1=O	> 100 µM (inactive)	50.4 µM (inactive)	> 100 µM (inactive)	20.9 µM (inactive)	64.4 µM (inactive)	74 µM (inactive)	> 100 µM (inactive)	17.5 µM (inactive)	81.7 µM (inactive)	26.4 µM (inactive)	61.4 µM (inactive)		> 100 µM (inactive)	> 100 µM (inactive)	> 100 µM (inactive)
O=C(Cc1csc2[n+]1C(=O)/C(=C/c1ccc(Cl)cc1)S2)Nc1ccccc1	19.6 µM (inactive)	14.9 µM (inactive)	19.2 µM (inactive)	12.8 µM (inactive)	10 µM (inactive)	22.5 µM (inactive)	22.5 µM (inactive)	23.4 µM (inactive)	15.4 µM (inactive)	30.3 µM (inactive)	16.4 µM (inactive)	26.4 µM (inactive)	15.4 µM (inactive)	24.2 µM (inactive)	30.4 µM (inactive)
Cc1c2c(n(CCc3ccccc3)c1C)N(C)N=C(C#N)S2(=O)=O	> 100 µM (inactive)		> 100 µM (inactive)	> 100 µM (inactive)	> 100 µM (inactive)	> 100 µM (inactive)	> 100 µM (inactive)	> 100 µM (inactive)	> 100 µM (inactive)	> 100 µM (inactive)	> 100 µM (inactive)	> 100 µM (inactive)	> 100 µM (inactive)	> 100 µM (inactive)	> 100 µM (inactive)
CC(=O)O[C@H]1[C@H](OC(=O)CC(C)(O)CC(=O)O)C[C@]2(C)C3=C(CCC2C1(C)C)[C@]1(C)CC[C@H]([C@H]2CC[C@H](C(C)(C)O)OC2O)[C@@]1(C)[C@@H](O)C3 (stereo partly specified)	15.8 µM (inactive)		19.4 µM (inactive)	16.1 µM (inactive)	19.4 µM (inactive)	15.1 µM (inactive)	17.3 µM (inactive)	20.9 µM (inactive)	24 µM (inactive)	19.7 µM (inactive)	20.9 µM (inactive)	14.1 µM (inactive)	15.8 µM (inactive)	16.6 µM (inactive)	18.1 µM (inactive)
Cc1ccc2c(c1)/C(=N/Nc1ccccc1[N+](=O)[O-])C(=O)N2	> 100 µM (inactive)	14.6 µM (inactive)	13.9 µM (inactive)	4.85 µM (inactive)	35.5 µM (inactive)	45.8 µM (inactive)	10.9 µM (inactive)	6.73 µM (inactive)	12 µM (inactive)	2.37 µM (inactive)	2.83 µM (inactive)	35.3 µM (inactive)		7.76 µM (inactive)	3.37 µM (inactive)
